Assay: mn = molality of the nth substance listed, in mol/kg
Settings: Liquid, isochoric method

C [methane] + CCCCCC
Settings	mass density [kg/m3]
273.1 K, 2850 kPa, m1 = 2.157	655
273.1 K, 3620 kPa, m1 = 2.812	648
273.1 K, 4700 kPa, m1 = 3.805	638
273.1 K, 5670 kPa, m1 = 4.686	628
273.1 K, 6920 kPa, m1 = 6.031	616
273.1 K, 7900 kPa, m1 = 7.195	604
273.1 K, 9190 kPa, m1 = 8.724	596
283.15 K, 2500 kPa, m1 = 1.717	650
283.15 K, 3570 kPa, m1 = 2.568	640
283.15 K, 4740 kPa, m1 = 3.533	632
283.15 K, 5840 kPa, m1 = 4.499	620
283.15 K, 7010 kPa, m1 = 5.615	610
283.15 K, 8560 kPa, m1 = 7.345	594
293.15 K, 2360 kPa, m1 = 1.513	643
293.15 K, 3340 kPa, m1 = 2.229	635
293.15 K, 4410 kPa, m1 = 3.042	627
293.15 K, 5620 kPa, m1 = 4.008	615
293.15 K, 6860 kPa, m1 = 5.098	604
293.15 K, 8400 kPa, m1 = 6.638	590

From the NIST ThermoML archive (doi:10.1016/j.jct.2016.03.038)
